What was measured:
Type in all cases: binding
[1] = target: CYP142 (Rv3518c, CYP142A1) (Mycobacterium tuberculosis, UniProt P9WPL5); assay: biochemical
[2] = target: T1, CYP125 (Rv3545c, CYP125A1) (Mycobacterium tuberculosis, UniProt P9WPP1); assay: biochemical
T1 sequence (P9WPP1 1-433): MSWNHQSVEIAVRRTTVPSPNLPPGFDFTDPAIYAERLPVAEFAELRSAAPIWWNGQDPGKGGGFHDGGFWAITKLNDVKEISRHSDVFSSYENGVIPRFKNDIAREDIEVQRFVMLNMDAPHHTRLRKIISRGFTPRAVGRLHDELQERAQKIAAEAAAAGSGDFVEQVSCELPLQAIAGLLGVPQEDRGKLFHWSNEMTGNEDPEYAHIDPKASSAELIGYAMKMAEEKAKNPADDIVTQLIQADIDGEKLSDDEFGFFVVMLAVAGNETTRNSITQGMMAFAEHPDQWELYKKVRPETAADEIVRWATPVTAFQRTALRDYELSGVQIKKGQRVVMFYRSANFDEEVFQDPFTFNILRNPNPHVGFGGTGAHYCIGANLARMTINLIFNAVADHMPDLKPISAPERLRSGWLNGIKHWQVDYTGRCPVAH

[3] = target: T2, CYP124 (Rv2266, CYP124A1) (Mycobacterium tuberculosis, UniProt P9WPP3); assay: […] Å co-crystal structure; […]; LC-MS turnover
T2 sequence (P9WPP3 1-428): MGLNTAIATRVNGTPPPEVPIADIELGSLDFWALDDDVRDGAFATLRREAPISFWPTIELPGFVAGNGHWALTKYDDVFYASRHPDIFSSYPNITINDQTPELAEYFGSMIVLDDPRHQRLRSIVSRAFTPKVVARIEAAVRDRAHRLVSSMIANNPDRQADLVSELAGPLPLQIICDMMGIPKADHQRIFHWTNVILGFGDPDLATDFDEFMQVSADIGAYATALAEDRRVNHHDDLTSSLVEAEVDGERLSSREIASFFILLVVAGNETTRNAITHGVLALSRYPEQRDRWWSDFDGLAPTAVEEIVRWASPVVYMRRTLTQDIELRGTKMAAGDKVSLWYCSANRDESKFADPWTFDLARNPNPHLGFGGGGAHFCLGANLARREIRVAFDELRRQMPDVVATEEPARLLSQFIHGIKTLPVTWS

Chain of CYP142 (Rv3518c, CYP142A1) (P9WPL5 whole entry): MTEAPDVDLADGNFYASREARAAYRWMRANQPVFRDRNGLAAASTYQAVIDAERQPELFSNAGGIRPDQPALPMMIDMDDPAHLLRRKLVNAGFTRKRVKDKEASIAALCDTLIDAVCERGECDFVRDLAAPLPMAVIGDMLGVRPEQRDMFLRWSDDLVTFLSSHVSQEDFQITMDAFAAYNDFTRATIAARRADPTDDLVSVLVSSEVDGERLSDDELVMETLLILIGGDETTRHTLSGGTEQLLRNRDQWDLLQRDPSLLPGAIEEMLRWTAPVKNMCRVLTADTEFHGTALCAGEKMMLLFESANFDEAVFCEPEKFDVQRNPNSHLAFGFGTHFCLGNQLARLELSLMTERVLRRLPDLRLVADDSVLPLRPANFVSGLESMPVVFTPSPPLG

Q: For `CC(C)=CCC/C(C)=C\CNCCNC1C2CC3CC(C2)CC1C3` (stereo not drawn) [SQ109], which Kd [1] is on record?
A: 52 ± 11 µM

Q: What about the Kd [2] of the same compound?
A: 41 ± 3 µM

Q: And the Kd [3]?
A: 3.4 ± 0.3 µM

Source: PMC7589583, “Hydroxylation of Antitubercular Drug Candidate, SQ109, by Mycobacterial Cytochrome P450” (International Journal of Molecular Sciences, 2020)
